Laboratory results as given in US20220088144A1, “SGLT-2 INHIBITORS OR IL-1R ANTAGONISTS FOR REDUCTION OF HYPOGLYCAEMIA AFTER BARIATRIC SURGERY” (UNIVERSITÄTSSPITAL BASEL, priority 2019, published 2022).

What was measured:
[1] = tested on: bulk monocytes; experiment: RNA sequencing of monocytes isolated from treated patients; set-up: species or system human; conditions: treatment compared to placebo
Description: Following the inventors' hypothesis of an overactivation of the innate immune system in patients experiencing post-bariatric hypoglycemia, they assessed transcriptional changes in innate immune cells from the inventors' patient population using an unbiased RNA sequencing approach. Therefore, the inventors isolated monocytes from peripheral blood sampled immediately before and 60 minutes (i.e. before rescue glucose application when needed) after ingestion of the mixed-meal on all three treatment days.
(§1) Blood samples were taken before and 60 minutes after meal intake. Due to scheduling conflicts, samples from two patients could not be processed. These samples are thus assumed to be missing at random. Of note, samples from patient 3 (sleeve gastrectomy) had already been processed for RNA sequencing before the final change of protocol. Sequencing data obtained from this patient were thus kept for the purpose of these analyses. Peripheral blood mononuclear cells were obtained by Ficoll density gradient centrifugation (Lymphoprep Fresenius Kabi, Norway). For 9 out of 11 patients, an additional step was added after density gradient centrifugation to pre-enrich monocytes by negative selection with CD3 human MicroBeads (#130-050-101; Miltenyi Biotec). The obtained cellular monocyte fractions were then incubated with FC-Block for 15 minutes at room temperature [(Human FcR TruStain FcX (Biolegend) REF 422302, compatible with flow cytometric staining with anti-human CD16 (clone 3G8)], and subsequently labeled with the following antibodies: APC Mouse anti-Human CD3 [HIT3a alpha] (#555342; BD Biosciences), FITC Mouse Anti-Human CD19 [HIB19 RUO] (#560994; BD Biosciences), PE-Cy5 Mouse Anti-Human CD56 [B159 RUO] (#560842; BD Biosciences), PE Mouse Anti-Human CD16 [3G8 RUO] (#560995; BD Biosciences), APC-Cy7 Mouse Anti-Human CD14 [MφP-9 RUO] (#561709; BD Biosciences).
(§2) Cells were then further enriched into the three monocyte subsets by fluorescence-activated cell sorting on a BD FACS-Aria III. Classical monocytes were defined as: single, live, CD56− CD19−CD3−CD14+CD16−, Intermediate monocytes were defined as: single, live CD56−CD19− CD3−CD14+CD16+ and non-classical monocytes were defined as: single, live CD56−CD19− CD3−CD14−CD16+. Bulk monocytes were defined as a combination-gate of the three subsets. For a representative example of the gating strategy see FIG. 13.
Total RNA was extracted from 500'000 bulk monocytes, isolated as described above using the Nucleo Spin RNA II Kit (Machery Nagel). Integrity of isolated total RNA was assessed on a 2100 Bioanalyzer System (Agilent Technologies, USA) with the Agilent RNA 6000 Pico Kit as recommended by the manufacturer. RNA concentration was determined with the Quant-iT RiboGreen RNA Assay Kit (Thermo Fisher Scientific, USA).
Purification of mRNA by poly(A)-selection, mRNA fragmentation and cDNA library preparation for RNA-Seq were performed using the TruSeq Stranded mRNA HT Sample Preparation Kit (Illumina, USA) according to the manufacturer's protocol. Before sequencing, quality and quantity analysis of prepared cDNA libraries were done on a Fragment Analyzer System (Advanced Analytical Technologies, USA). cDNA libraries were sequenced as single-end reads with 125 cycles on a HiSeq2500 sequencing system (Illumina, USA) at the Genomics Facility Basel. Of note, 2 samples failed during library preparation.
Initial quality checks were performed with FastQC version 0.11.4 (www.bioinformatics.babraham.ac.uk/projects/fastqc/). Adaptor clipping and quality-trimming of sequences was performed using Trimmomatic version 0.36 (Bolger, A. M., Lohse, M., and Usadel, B. (2014). Bioinformatics 30, 2114-2120) and reads were aligned to the GRCh38 reference genome using the splice aware aligner STAR version 2.7.0 (Dobin, A., et al. (2013). Bioinformatics 29, 15-21). Count-tables were produced using HTSeq version 0.6.1 (Anders, S., Pyl, P. T., and Huber, W. (2015). Bioinformatics 31, 166-169). […]

[2] = tested on: patients after bariatric surgery with post-prandial hypoglycaemia; experiment: Follow up: off-label therapy with empagliflozin after the study; format: in vivo, human; conditions: six patients
Text: Two trial participants were continued to be treated, and four more patients were initiated on off-label therapy with empagliflozin after completion of the study.

[3] = cited from earlier work
[4] = tested on: bulk monocytes; experiment: Ex vivo cytokine-secretion assay of monocytes isolated from treated patients; format: cell-based, human; conditions: for IL-1 beta in monocyte supernatant, estimate vs placebo: FIG. 9a; for IL-1 beta in monocyte supernatant, estimate vs placebo / IL-6 in monocyte supernatant, estimate vs placebo / TNFalpha in monocyte supernatant, estimate vs placebo: post-meal, no-hypo vs placebo, no-hypo, non-stimulated; for IL-6 in monocyte supernatant, estimate vs placebo: FIG. 9b; for TNFalpha in monocyte supernatant, estimate vs placebo: FIG. 9c; for postprandial increase in inflammatory cytokine secretion (IL-1β, IL-6, TNF-α) by monocytes: ex vivo culture 18 h, compared to placebo
Description: In order to evaluate if changes at RNA level translated into protein expression, the inventors cultured monocytes isolated as described for RNA sequencing for a period of 18 h and measured pro-inflammatory cytokines in cell culture supernatants. […] In line with the reasoning, it has been shown that monocytes taken from an inherently pro-inflammatory milieu (septic shock), express increased mRNA levels of various inflammatory cytokines and chemokines (IL-1β, IL-1α, IL-6, CCL2), but release markedly lower levels of protein following ex vivo stimulation with LPS.
as §1, §2
Bulk monocytes obtained as described above were resuspended in fresh medium (RPMI-1640 (containing 11 mM Glucose, #31870-025; GIBCO) containing 200 U/ml penicillin, 200 U/ml streptomycin (Pen/Strep, #15140; GIBCO), 2 mM Glutamax (#35050061; GIBCO), 1 mM NaPyruvat (#11360-039; GIBCO), 1×MeM (#11140050; Sigma) and 10% FCS (#10500; Invitrogen)) at a density of 50'000 cells/well in a standard 96-well U-bottom plate. For each patient-visit sample, monocytes pre- and post-liquid mixed-meal were either left unstimulated (baseline condition) or activated with LPS (LPS-SM, #tlrl-smlps, Invivogen=activated condition) at a concentration of 5 ng/ml in duplicates. Thus, treated cells were then incubated for a period of 18 hours at 37° C. and 5% CO2 followed by harvesting of cell supernatants. Cytokine concentrations were determined in cell supernatants using the V-PLEX Human Proinflammatory Panel II (4-Plex) kit (Mesoscale Discovery) according to the manufacturer's instructions (Alternate Protocol 1, Extended Incubation). Two patients had to be excluded from analysis due to technical problems.

[5] = subcutaneous administration; cited from earlier work

Row | Molecule | number of downregulated genes in monocytes [1] | number of upregulated genes in monocytes [1] | total genes differentially regulated in monocytes [1] | efficacy and tolerability more than half a year after initiating off-label therapy [2] | frequency of hypoglycemic episodes, off-label therapy ([2]; empagliflozin after completion of the study) | mean Plasma-AUC in the steady state [3] | IL-1 beta in monocyte supernatant, estimate vs placebo [4] | IL-6 in monocyte supernatant, estimate vs placebo [4] | TNFalpha in monocyte supernatant, estimate vs placebo [4] | postprandial increase in inflammatory cytokine secretion (IL-1β, IL-6, TNF-α) by monocytes [4] | time of maximum plasma concentration [5]
1 | OC[C@H]1O[C@@H](c2ccc(Cl)c(Cc3ccc(O[C@H]4CCOC4)cc3)c2)[C@H](O)[C@@H](O)[C@@H]1O [empagliflozin] | 0 | 14 | 14 | still effective and well tolerated by all patients | lower frequency of hypoglycemic episodes in each of the six patients | 1.87 µM·h | −3395.36 | −18937.7 | −453.496 | significantly inhibited | –
2 | anakinra: CAS NO 143090-92-0; recombinant, non-glycosylated form of the human interleukin-1 receptor antagonist (IL-1 Ra), 153 amino acids | 71 | 163 | 234 | – | – | – | −2426.73 | −17208.1 | −452.659 | significantly inhibited | 4 h
